Measured values reported in patent US8530408B2, “Substrates of N-end rule ubiquitylation and methods for measuring the ubiquitylation of these substrate” (Meso Scale Technologies LLC, priority 2002, dated 2013).

How the values were obtained:
HMGN2 ubiquitylation = test: ECL assay for N-end rule ubiquitylation of HMGN2; format: biochemical; conditions: 1 mM inhibitor; rabbit reticulocyte lysate; 50 μM MG-132; 30° C.; FIG. 6(A),(B)
Description: (§1) Protein was produced from the plasmid DNA in a transcription-translation reaction mixture containing rabbit reticulocyte lysate and SP6 RNA polymerase (TNT SP6 Quick Mix, Promega) and that was further supplemented with 20 μM methionine, 8-30 μg/ml plasmid DNA, 20 μg/ml biotinylated Lys-tRNA (transcend tRNA, Promega), and 50 μM of the proteosome inhibitor MG-132 (Calbiochem) in a total volume of 12.5 μl. Ubiquitylation of newly synthesized proteins occurred in the same reaction mixtures and was driven by the ubiquitylation system present in reticulocyte lysates. An ECL-based ubiquitylation assay (described below) was used to determine if the newly synthesized protein was ubiquitylated. […]
(§2) The reactions were allowed to proceed for a desired period of time at 30° C. In some experiments, several reaction time points were analyzed. […] Thereafter the plate was washed three times with 20 mM Tris-HCl, 0.004% Triton X-100 followed by addition of 150 μl of a buffered solution containing tripropylamine (MSD Read Buffer, Meso-Scale Discovery, Gaithersburg Md.) into each well. ECL signals from labels bound to the electrode surfaces were measured using a Sector HTS instrument.
High Mobility Group Chromosomal Protein 17 (now renamed HMGN2) was produced using IMAGE clone #3455121 and analyzed for its ability to act as an N-end rule substrate by ECL assay as described in Materials and Methods. […]

aprataxin ubiquitylation = test: ECL assay for N-end rule ubiquitylation of aprataxin; format: biochemical; conditions: 1 mM inhibitor (equivalent concentrations); rabbit reticulocyte lysate; 50 μM MG-132; 30° C.; FIG. 4(A),(B)
Description: as §1, §2
Aprataxin was produced using IMAGE clone #3994375 and analyzed for its ability to act as an N-end rule substrate by ECL assay and by gel electrophoresis as described in the Materials and Methods.

PinX1 ubiquitylation = test: ECL assay for N-end rule ubiquitylation of PinX1; format: biochemical; conditions: 1 mM inhibitor; rabbit reticulocyte lysate; 50 μM MG-132; 30° C.; FIG. 9(A),(B)
Description: as §1, §2
PinX1 was produced using IMAGE clone #3911679 and analyzed for its ability to act as an N-end rule substrate by ECL assay as described in the Materials and Methods.

HSPC144 ubiquitylation = test: ECL assay for N-end rule ubiquitylation of HSPC144; format: biochemical; conditions: 1 mM inhibitor; rabbit reticulocyte lysate; 50 μM MG-132; 30° C.; FIG. 8(A),(B)
Description: as §1, §2
HSPC144 was produced using IMAGE clone #3907737 and analyzed for its ability to act as an N-end rule substrate by ECL assay as described in the Materials and Methods.

cdc6 ubiquitylation = test: ECL assay for N-end rule ubiquitylation of CDC6; format: biochemical; conditions: 1 mM inhibitor; rabbit reticulocyte lysate; 50 μM MG-132; 30° C.; FIG. 7(A),(B)
Description: as §1, §2
Cell Cycle Controller cdc6 was produced using IMAGE clone #3867414 and analyzed for its ability to act as an N-end rule substrate by ECL assay and by gel electrophoresis as described in the Materials and Methods.

[1] = system: synaptotagmin-like protein 2 ubiquitylation; test: ECL assay for N-end rule ubiquitylation of synaptotagmin-like protein 2; format: biochemical; conditions: 1 mM inhibitor; rabbit reticulocyte lysate; 50 μM MG-132; 30° C.; FIG. 5(A),(B)
Description: as §1, §2
Synaptotagmin-like protein 2 was produced using IMAGE clone #3887550 and analyzed for its ability to act as an N-end rule substrate by ECL assay and by gel electrophores is as described in the Materials and Methods.

HMGN3 ubiquitylation = test: ECL assay for N-end rule ubiquitylation of HMGN3; format: biochemical; conditions: 1 mM inhibitor; HMGN3 from clones #3890883 and #4749335, effect most pronounced for clone #4749335; rabbit reticulocyte lysate; 50 μM MG-132; 30° C.; FIG. 10
Description: as §1, §2
HMGN3 was produced using IMAGE clones #3890883 and #4749335 and analyzed for its ability to act as an N-end rule substrate by ECL assay as described in Materials and Methods.

tau ubiquitylation = test: ECL assay for N-end rule ubiquitylation of tau; format: biochemical; conditions: 1 mM inhibitor; rabbit reticulocyte lysate; 50 μM MG-132; 30° C.; FIG. 3(A),(B)
Description: as §1
as §2, with “instrument. […]” for “instrument.”

RGS4 ubiquitylation = test: ECL assay for N-end rule ubiquitylation of RGS4; format: biochemical; conditions: 1 mM inhibitor; rabbit reticulocyte lysate; 50 μM MG-132; 30° C.; FIG. 2(A),(B)
Description: as §1
as §2, with “instrument. […]” for “instrument.”

[2] = system: RGS4 ubiquitin/proteosome degradation via N-end rule pathway; test: Denaturing gel analysis of N-end rule-dependent degradation of RGS4; format: biochemical, rabbit; conditions: [14C]-lysine, MG-132 omitted, SDS-PAGE time course, 30° C.; FIG. 2(C)
Description: Proteins were synthesized as described in the previous section except that biotinylated Lys-tRNA was substituted with [^14C]-lysine, and MG-132 was omitted. The reactions were incubated at 30° C. for indicated times. They were stopped by transferring of aliquots of reactions into SDS-sample buffer. The samples were heated for 5 min at 95° C. and fractionated by SDS-PAGE on 4-20% gradient polyacrylamide gels. Gels were soaked in Amplify™ fluorographic reagent (Amersham Pharmacia Biotech), dried and exposed to X-ray films.
RGS4 was produced and characterized as an N-end rule substrate as described in the Materials and Methods section. RGS4 is a known Type 1 N-end rule ubiquitylation substrate (Davydov and Varshavsky, 2000, J. Biol. Chem., 275: 22931).

Substance	% of HMGN2 ubiquitylation in the presence of specific N-end rule inhibitors compared to the reaction in the absence of the inhibitors (HMGN2 ubiquitylation)	% of aprataxin ubiquitylation in the presence of specific N-end rule inhibitors compared to the reaction in the absence of the inhibitors (aprataxin ubiquitylation)	% of PinX1 ubiquitylation in the presence of specific N-end rule inhibitors compared to the reaction in the absence of the inhibitors (PinX1 ubiquitylation)	% of HSPC144 ubiquitylation in the presence of specific N-end rule inhibitors compared to the reaction in the absence of the inhibitors (HSPC144 ubiquitylation)	% of cdc6 ubiquitylation in the presence of specific N-end rule inhibitors compared to the reaction in the absence of the inhibitors (cdc6 ubiquitylation)	% of synaptotagmin-like protein 2 ubiquitylation in the presence of specific N-end rule inhibitors compared to the reaction in the absence of the inhibitors [1]	% of HMGN3 ubiquitylation in the presence of specific N-End Rule inhibitors compared to the reaction in the absence of the inhibitors (HMGN3 ubiquitylation)	% of tau ubiquitylation in the presence of specific N-end rule inhibitors compared to the reaction in the absence of the inhibitors (tau ubiquitylation)	% of RGS4 ubiquitylation in the presence of specific N-end rule inhibitors compared to the reaction in the absence of the inhibitors (RGS4 ubiquitylation)	accumulation of the C-terminal fragment of RGS4 having the N-terminal Met removed (autoradiogram) [2]
Trp-Ala	little to no effect	little to no effect	no effect	no effect	smaller effect	inhibit synaptotagmin-like protein 2 ubiquitylation to a similar extent	little effect	little to no effect	little to no effect	–
Arg-β-Ala	inhibit HMGN2 ubiquitylation to a similar extent	inhibit aprataxin ubiquitylation to a similar extent	inhibit PinX1 ubiquitylation to a similar extent	inhibit HSPC ubiquitylation to a similar extent	inhibit cdc6 ubiquitylation to a similar extent	little to no effect	inhibit HMGN3 ubiquitylation to a greater extent	inhibit tau ubiquitylation to a similar extent	inhibit RGS4 ubiquitylation to a similar extent	time dependent accumulation exclusively in the presence of Arg-β-Ala inhibitor
